# Reference: patent publication US10919884B2, “Amide compounds for treatment of immune and inflammatory disorders” (Achillion Pharmaceuticals, Inc., priority 2015, dated 2021)
# pIC50: −log10 of the molar value.
# Target: Human Factor D (Homo sapiens (Human), UniProt P00746)
# Assay: Human Factor D Assay
# Format: biochemical
# Conditions: Human Factor D purified from human serum, 80 nM; substrate Z-L-Lys-SBzl and DTNB 100 μM each; assay of Example 12
# Method: Example 12. Human Factor D Assay
# Human Factor D (purified from human serum, Complement Technology, Inc.) at 80 nM final concentration is incubated with test compound at various concentrations for 5 minutes at room temperature in 50 mM Tris, 1 M NaCl, pH 7.5. A synthetic substrate Z-L-Lys-SBzl and DTNB (Ellman's reagent) are added to final concentrations of 100 μM each. Absorbance at 405 nm (A405) is recorded at 30 second intervals for 30 minutes using a microplate spectrophotometer. IC50 values are calculated by nonlinear regression of complement Factor D reaction rates as a function of test compound concentration.
# The assay of Example 12 was used to determine the IC50's of the compounds. Other standard Factor D inhibition assays are also available.
# Chain of Human Factor D (P00746 26-253): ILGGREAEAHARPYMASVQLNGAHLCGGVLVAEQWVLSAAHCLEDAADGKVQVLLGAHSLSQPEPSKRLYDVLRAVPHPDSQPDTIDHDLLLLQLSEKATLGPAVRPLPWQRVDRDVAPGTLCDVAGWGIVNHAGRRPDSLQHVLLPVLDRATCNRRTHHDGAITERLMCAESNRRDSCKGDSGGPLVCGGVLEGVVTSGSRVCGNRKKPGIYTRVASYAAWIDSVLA
row,Compound,pIC50
1,"Cc1cccc(NC(=O)[C@@H]2CC=CCN2C(=O)Cn2cc(C(N)=O)c3cc(NC(=O)N4CCCC(F)(F)C4)ccc32)n1 [Compound 1, (S)-5-(3,3-difluoropiperidine-1-carboxamido)-1-(2-(6-((6-methylpyridin-2-yl)carbamoyl)-5,6-dihydropyridin-1(2H)-yl)-2-oxoethyl)-1H-indole-3-carboxamide]",< 5.00
2,"Cc1cccc(C[C@@H](O)[C@H]2C[C@@H](F)CN2C(=O)Cn2cc(C(N)=O)c3cc(NC(=O)N4CCCC(F)(F)C4)ccc32)n1 [Compound 2, 5-(3,3-difluoropiperidine-1-carboxamido)-1-(2-((2R,4R)-4-fluoro-2-((R)-1-hydroxy-2-(6-methylpyridin-2-yl)ethyl)pyrrolidin-1-yl)-2-oxoethyl)-1H-indole-3-carboxamide]",< 5.00
3,"Cc1cccc(C[C@H](O)[C@@H]2C[C@@H](F)CN2C(=O)Cn2cc(C(N)=O)c3cc(NC(=O)N4CCCC(F)(F)C4)ccc32)n1 [Compound 3, 5-(3,3-difluoropiperidine-1-carboxamido)-1-(2-((2S,4R)-4-fluoro-2-((S)-1-hydroxy-2-(6-methylpyridin-2-yl)ethyl)pyrrolidin-1-yl)-2-oxoethyl)-1H-indole-3-carboxamide]",< 5.00
4,"Cc1cccc(NC(=O)[C@@H]2CCC(F)CCN2C(=O)Cn2cc(C(N)=O)c3cc(NC(=O)N4CCCC(F)(F)C4)ccc32)n1 (stereo partly drawn) [Compound 4, 5-(3,3-difluoropiperidine-1-carboxamido)-1-(2-((2S)-5-fluoro-2-((6-methylpyridin-2-yl)carbamoyl)azepan-1-yl)-2-oxoethyl)-1H-indole-3-carboxamide]",< 5.00
5,"Cc1cccc(NC(=O)[C@@H]2CC=CCN2C(=O)Cn2cc(C(N)=O)c3cc(C(=O)NS(=O)(=O)C4CC4)ccc32)n1 [Compound 5, (S)-N5-(cyclopropylsulfonyl)-1-(2-(6-((6-methylpyridin-2-yl)carbamoyl)-5,6-dihydropyridin-1(2H)-yl)-2-oxoethyl)-1H-indole-3,5-dicarboxamide]",< 5.00
